# Results reported in patent US10752601B2, “Crystal form and salt of 3-(3,5-dichloro-4-hydroxybenzoyl)-1,1-dioxo-2,3-dihydro-1,3-benzothiazole” (FUJI YAKUHIN CO., LTD., priority 2017, dated 2020).
# Where two headings read alike, the source gives them in different places.
# Tests used:
# [1] = Test Example 1 (flowability and floodability), Carr index table; format: physicochemical
# Protocol: Test Example 1 (flowability and floodability): the compressibility was calculated by measuring bulk density and tap density of the crystals in Examples 1 and 2, and moreover, their dynamic bulk density, angle of repose, angle of spatula, uniformity, cohesion, angle of fall, angle of difference, and degree of dispersion were found, and flowability and floodability were evaluated using the Carr index table. (Table 1).
# [2] = Test Example 2 (absorption properties at time of oral administration to rat); format: in vivo; details: single oral, mean ± SD (n = 4); for concentration at 1 hr: read-out: Unchanged compound level in blood plasma 1 hr; for concentration at 2 hr: read-out: Unchanged compound level in blood plasma 2 hr; for concentration at 4 hr: read-out: Unchanged compound level in blood plasma 4 hr; for concentration at 8 hr: read-out: Unchanged compound level in blood plasma 8 hr; for concentration at 24 hr: read-out: Unchanged compound level in blood plasma 24 hr; for AUC(0-t): read-out: AUC0-24 hr
# Protocol: A test substance suspended in a 0.5% solution of methylcellulose was orally administered to a male CD (SD) rat (CHARLES RIVER LABORATORIES JAPAN, INC., 7 weeks old when used) in a dose of 30 and 300 mg/kg, and blood was then collected after 0.25, 0.5, 1, 2, 4, 8, and 24 hours. The level of unchanged compound in blood plasma was measured by HPLC (Table 2, Table 3), and pharmacokinetic parameters were calculated and absorption was evaluated (Table 4).
# [3] = male, CD (SD), plasma, po, 300 mg/kg, 300 mg/kg
# [4] = male, CD (SD), plasma, po, 30 mg/kg, 30 mg/kg
smiles,measurement,setting,value
"O=C(c1cc(Cl)c(O)c(Cl)c1)N1CS(=O)(=O)c2ccccc21 [Example 2, 3-(3,5-dichloro-4-hydroxybenzoyl)-1,1-dioxo-2,3-dihydro-1,3-benzothiazole]",Floodability index,[1]; after pulverization,49.5
same,Flowability index,[1]; after pulverization,42
same,Floodability index,[1]; before pulverization,57.5
same,Flowability index,[1]; before pulverization,65
same,concentration at 1 hr,[2]; [3],140 ± 20.3 µg/mL
same,concentration at 2 hr,[2]; [3],264 ± 42.2 µg/mL
same,concentration at 4 hr,[2]; [3],314 ± 11.2 µg/mL
same,concentration at 8 hr,[2]; [3],267 ± 38.4 µg/mL
same,concentration at 24 hr,[2]; [3],47.2 ± 19.9 µg/mL
same,AUC(0-t),[2]; [3],4530 ± 269 µg·h/mL
same,Cmax,"[2]; male, CD (SD), plasma, po, 300 mg/kg, 300 mg/kg, read-out: Cmax",316 ± 11.4 µg/mL
same,Tmax,"[2]; male, CD (SD), plasma, po, 300 mg/kg, 300 mg/kg, read-out: Tmax",3.5 ± 1 h
same,Unchanged compound level in blood plasma 0.25 hr,[2]; 30 mg/kg,12.45 ± 3.94 µg/mL
same,Unchanged compound level in blood plasma 0.5 hr,[2]; 30 mg/kg,27.41 ± 4.71 µg/mL
same,Unchanged compound level in blood plasma 1 hr,[2]; 30 mg/kg,37.38 ± 2.85 µg/mL
same,Unchanged compound level in blood plasma 2 hr,[2]; 30 mg/kg,38.54 ± 0.91 µg/mL
same,Unchanged compound level in blood plasma 4 hr,[2]; 30 mg/kg,23.23 ± 3.08 µg/mL
same,Unchanged compound level in blood plasma 8 hr,[2]; 30 mg/kg,19.23 ± 2.51 µg/mL
same,Unchanged compound level in blood plasma 24 hr,[2]; 30 mg/kg,1.35 ± 0.73 µg/mL
same,AUC0-24 hr,[2]; 30 mg/kg,371.97 ± 34.08 µg·h/mL
same,Cmax,[2]; 30 mg/kg,39.03 ± 0.43 µg/mL
same,Tmax,[2]; 30 mg/kg,1.50 ± 0.58 h
same,Unchanged compound level in blood plasma 0.25 hr,[2]; 300 mg/kg,39.18 ± 4.61 µg/mL
same,Unchanged compound level in blood plasma 0.5 hr,[2]; 300 mg/kg,79.93 ± 13.24 µg/mL
"O=C(c1cc(Cl)c(O)c(Cl)c1)N1CS(=O)(=O)c2ccccc21 [Example 1, 3-(3,5-dichloro-4-hydroxybenzoyl)-1,1-dioxo-2,3-dihydro-1,3-benzothiazole]",Floodability index,[1]; after pulverization,43
same,Flowability index,[1]; after pulverization,36
same,concentration at 1 hr,[2]; [4],49.8 ± 22.7 µg/mL
same,concentration at 2 hr,[2]; [4],33 ± 11 µg/mL
same,concentration at 4 hr,[2]; [4],26.6 ± 13 µg/mL
same,concentration at 8 hr,[2]; [4],20.4 ± 5.53 µg/mL
same,concentration at 24 hr,[2]; [4],1.16 ± 0.45 µg/mL
same,AUC(0-t),[2]; [4],412 ± 123 µg·h/mL
same,Cmax,"[2]; male, CD (SD), plasma, po, 30 mg/kg, 30 mg/kg, read-out: Cmax",59.2 ± 29.5 µg/mL
same,Unchanged compound level in blood plasma 0.25 hr,[2]; 30 mg/kg,38.18 ± 23.24 µg/mL
same,Unchanged compound level in blood plasma 0.5 hr,[2]; 30 mg/kg,58.51 ± 30.81 µg/mL
same,Tmax,[2]; 30 mg/kg,0.63 ± 0.25 h
same,Unchanged compound level in blood plasma 0.25 hr,[2]; 300 mg/kg,174.78 ± 19.03 µg/mL
same,Unchanged compound level in blood plasma 0.5 hr,[2]; 300 mg/kg,275.88 ± 42.51 µg/mL
same,Unchanged compound level in blood plasma 1 hr,[2]; 300 mg/kg,275.53 ± 30.24 µg/mL
same,Unchanged compound level in blood plasma 2 hr,[2]; 300 mg/kg,298.88 ± 35.19 µg/mL
same,Unchanged compound level in blood plasma 4 hr,[2]; 300 mg/kg,285.55 ± 26.38 µg/mL
same,Unchanged compound level in blood plasma 8 hr,[2]; 300 mg/kg,267.85 ± 25.73 µg/mL
same,Unchanged compound level in blood plasma 24 hr,[2]; 300 mg/kg,73.31 ± 27.54 µg/mL
same,AUC0-24 hr,[2]; 300 mg/kg,4923.74 ± 547.44 µg·h/mL
same,Cmax,[2]; 300 mg/kg,307.28 ± 26.20 µg/mL
same,Tmax,[2]; 300 mg/kg,4.00 ± 2.83 h
